Laboratory results as given in patent US10647725B2, “Anti-infective 2-aminothiophenes” (priority 2016, dated 2020).
≈ marks a conversion by molar mass, not a printed value.

System: Mtb strains INH-R1, INH-R2, RIF-R1, RIF-R2, FQ-R1
Experiment: microbe, parasite or virus in culture
Type: cell-based
Conditions: Mycobacterium tuberculosis; read-out: MIC against resistant isolates

With `CCOC(=O)c1c(NC(=O)c2c(F)c(F)c(F)c(F)c2F)sc2c1CCN(CC)C2` [4{3,3,0}, ethyl 6-ethyl-2-(perfluorobenzamido)-4,5,6,7-tetrahydrothieno[2,3-c]pyridine-3-carboxylate] the MIC was 0.2 to 0.44 µM (≈ 0.0897 to 0.197 µg/mL).
